# Structures can show the parent of a compound that is named as a salt.
# Target: T1, hFXR (Homo sapiens, UniProt Q96RI1)
# T1 construct: expressed in transfected cells; host or cells: CV-1 cells
# T1 sequence (Q96RI1 1-486): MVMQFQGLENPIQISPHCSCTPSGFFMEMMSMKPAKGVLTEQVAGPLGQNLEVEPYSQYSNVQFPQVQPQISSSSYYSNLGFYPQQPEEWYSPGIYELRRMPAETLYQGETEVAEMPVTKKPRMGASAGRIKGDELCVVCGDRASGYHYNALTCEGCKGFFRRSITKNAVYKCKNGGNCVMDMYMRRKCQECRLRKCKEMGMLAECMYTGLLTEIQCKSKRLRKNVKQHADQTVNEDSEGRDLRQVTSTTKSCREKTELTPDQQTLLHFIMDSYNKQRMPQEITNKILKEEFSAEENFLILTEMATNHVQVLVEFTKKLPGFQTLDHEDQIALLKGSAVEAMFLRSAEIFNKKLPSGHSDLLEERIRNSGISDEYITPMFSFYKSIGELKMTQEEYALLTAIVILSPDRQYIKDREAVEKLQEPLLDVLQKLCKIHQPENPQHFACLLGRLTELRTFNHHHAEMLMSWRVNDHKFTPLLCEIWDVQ
# T1 sequence (P19793 1-462 partner): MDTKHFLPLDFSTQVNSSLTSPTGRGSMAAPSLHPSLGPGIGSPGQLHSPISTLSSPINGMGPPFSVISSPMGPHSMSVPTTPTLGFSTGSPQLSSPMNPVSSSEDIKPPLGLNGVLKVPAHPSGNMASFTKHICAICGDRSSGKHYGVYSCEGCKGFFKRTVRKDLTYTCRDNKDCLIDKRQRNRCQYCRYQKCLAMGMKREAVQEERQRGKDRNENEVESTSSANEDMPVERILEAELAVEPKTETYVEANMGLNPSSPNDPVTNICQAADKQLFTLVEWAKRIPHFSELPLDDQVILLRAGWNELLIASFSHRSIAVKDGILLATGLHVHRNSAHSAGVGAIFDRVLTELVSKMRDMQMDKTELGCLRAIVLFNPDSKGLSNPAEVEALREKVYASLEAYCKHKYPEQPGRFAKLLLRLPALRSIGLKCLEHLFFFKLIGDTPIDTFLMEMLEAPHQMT
# Experiment: In Vitro FXR Assay (TK): TK-ECRE-luc reporter in transfected CV-1 cells
# Assay type: cell-based
# Details: 18 hrs, luminescence, maximum efficacy of <25% of the Fexarmine control classified as '+'
# Procedure, shortened: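 Reporter transactivation by hFXR was measured in CV-1 cells carrying hRXR and a TK-ECRE-luc construct, with compound treatment for 18 h before lysis and luminescence detection.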
row,SMILES,EC50 [nM]
1,"COc1ccc([C@H]2CC[C@H](CN(c3cccc(-c4cnn(C5CC5)c4)c3)C(=O)[C@H]3CC[C@H](NC(=O)[C@H]4CC[C@H](O)CC4)CC3)CC2)cc1C [Compound 26.06, trans-N-(3-(1-Cyclopropyl-1H-pyrazol-4-yl)phenyl)-4-(trans-4-hydroxycyclohexanecarboxamido)-N-((trans-4-(4-methoxy-3-methylphenyl)cyclohexyl)methyl) cyclohexanecarboxamide]",≤ 250
2,"COc1ccc([C@H]2CC[C@H](CN(c3cc(-c4coc(C5CC5)n4)ccn3)C(=O)[C@H]3CC[C@H](CNC(=O)CO)CC3)CC2)nc1C [Compound 26.29, trans-N-(4-(2-Cyclopropyloxazol-4-yl)pyridin-2-yl)-4-((2-hydroxyacetamido)methyl)-N-((trans-4-(5-methoxy-6-methylpyridin-2-yl)cyclohexyl)methyl) cyclohexanecarboxamide]",250 to 1000
3,"COCCN(C)C(=O)O[C@H]1CC[C@H](C(=O)N(C[C@H]2CC[C@H](c3ccc(OC)c(C)c3)CC2)c2cccc(-c3cnn(C4CC4)c3)c2)CC1 [Compound 6.26, trans-4-((3-(1-Cyclopropyl-1H-pyrazol-4-yl)phenyl)((trans-4-(4-methoxy-3-methylphenyl)cyclohexyl)methyl)carbamoyl)cyclohexyl (2-methoxyethyl) (methyl)carbamate]",≤ 250
4,"COc1ccc([C@H]2CC[C@H](CN(c3cccc(-c4cnn(C5CC5)c4)c3)C(=O)[C@H]3CC[C@H](OC(=O)NC[C@@H](O)CO)CC3)CC2)cc1C [Compound 6.13, trans-4-((3-(1-Cyclopropyl-1H-pyrazol-4-yl)phenyl)((trans-4-(4-methoxy-3-methylphenyl)cyclohexyl)methyl)carbamoyl)cyclohexyl ((R)-2,3-dihydroxypropyl)carbamate]",≤ 250
5,"CCCCC(=O)N[C@H]1CC[C@H](C(=O)N(C[C@H]2CC[C@H](c3ccc(OC)c(C)c3)CC2)c2cccc(-c3cnc(C4CC4)s3)c2)CC1 [Compound 25.17, trans-N-(3-(2-Cyclopropylthiazol-5-yl)phenyl)-N-((trans-4-(4-methoxy-3-methylphenyl)cyclohexyl)methyl)-4-pentanamidocyclohexanecarboxamide]",≤ 250
6,"CNCC(=O)N[C@H]1CC[C@H](C(=O)N(C[C@H]2CC[C@H](c3ccc(OC)c(C)c3)CC2)c2cccc(-c3cnc(C4CC4)s3)c2)CC1 [Compound 31.08, trans-N-(3-(2-Cyclopropylthiazol-5-yl)phenyl)-N-((trans-4-(4-methoxy-3-methylphenyl)cyclohexyl)methyl)-4-(2-(methylamino)acetamido) cyclohexanecarboxamide]",≤ 250
7,"CNC(=O)O[C@H]1CC[C@H](C(=O)N(C[C@H]2CC[C@H](c3ccc(OC)c(C)n3)CC2)c2cc(-c3cnc(C4CC4)s3)ccn2)CC1 [Compound 5.03, trans-4-((4-(2-Cyclopropylthiazol-5-yl)pyridin-2-yl)((trans-4-(5-methoxy-6-methylpyridin-2-yl)cyclohexyl)methyl)carbamoyl)cyclohexyl methylcarbamate]",≤ 250
8,"CNCCO[C@H]1CC[C@H](C(=O)N(C[C@H]2CC[C@H](c3ccc(OC)c(C)c3)CC2)c2cccc(-c3cnc(C4CC4)s3)c2)CC1 [Compound 11, trans-N-(3-(2-Cyclopropylthiazol-5-yl)phenyl)-N-((trans-4-(4-methoxy-3-methylphenyl)cyclohexyl)methyl)-4-(2-(methylamino)ethoxy) cyclohexanecarboxamide hydrochloride]",250 to 1000
9,"CNC(=O)O[C@H]1CC[C@H](C(=O)N(CC23CCC(c4ccc(OC)c(C)c4)(CC2)CC3)c2cccc(C#Cc3nccs3)c2)CC1 [Compound 2.05, 4-(((4-(4-Methoxy-3-methylphenyl)bicyclo[2.2.2]octan-1-yl)methyl)(3-(thiazol-2-ylethynyl)phenyl)carbamoyl)cyclohexyl trans-methylcarbamate]",≤ 250
10,"COc1ccc([C@H]2CC[C@H](CN(c3cc(-c4coc(C5CC5)n4)ccn3)C(=O)[C@H]3CC[C@H](OC(=O)N4CCOC(C)(C)C4)CC3)CC2)nc1C [Compound 6.83, trans-4-((4-(2-Cyclopropyloxazol-4-yl)pyridin-2-yl)((trans-4-(5-methoxy-6-methylpyridin-2-yl)cyclohexyl)methyl)carbamoyl)cyclohexyl 2,2-dimethylmorpholine-4-carboxylate]",≤ 250
11,"COc1ccc([C@H]2CC[C@H](CN(c3cccc(-c4cnc(C5CC5)s4)c3)C(=O)[C@H]3CC[C@H](C(=O)O)CC3)CC2)cc1C [Compound 17, trans-4-((3-(2-Cyclopropylthiazol-5-yl)phenyl)((trans-4-(4-methoxy-3-methylphenyl)cyclohexyl)methyl)carbamoyl)cyclohexanecarboxylic acid]",≤ 250

# The next lines start with the values.
row,EC50 [nM],SMILES
1,≤ 250,"COc1ccc([C@H]2CC[C@H](CN(c3cccc(-c4cnn(C(C)C)c4)c3)C(=O)[C@H]3CC[C@H](OC(=O)N4CC(O)C4)CC3)CC2)nc1C#N [Compound 7.43, trans-4-(((trans-4-(6-Cyano-5-methoxypyridin-2-yl)cyclohexyl)methyl)(3-(1-isopropyl-1H-pyrazol-4-yl)phenyl)carbamoyl)cyclohexyl 3-hydroxyazetidine-1-carboxylate]"
2,≤ 250,"COc1ccc([C@H]2CC[C@H](CN(c3cccc(-c4coc(C5CC5)n4)c3)C(=O)[C@H]3CC[C@H](OC(=O)N4CC(O)C4)CC3)CC2)cc1C [Compound 7.62, trans-4-((3-(2-Cyclopropyloxazol-4-yl)phenyl)((trans-4-(4-methoxy-3-methylphenyl)cyclohexyl)methyl)carbamoyl)cyclohexyl 3-hydroxyazetidine-1-carboxylate]"
3,≤ 250,"COc1ccc([C@H]2CC[C@H](CN(c3cccc(-c4cnn(C(C)C)c4)c3)C(=O)[C@H]3CC[C@H](OC(=O)N4CC(O)C4)CC3)CC2)cc1C [Compound 7.14, trans-4-((3-(1-Isopropyl-1H-pyrazol-4-yl)phenyl)((trans-4-(4-methoxy-3-methylphenyl)cyclohexyl)methyl)carbamoyl)cyclohexyl 3-hydroxyazetidine-1-carboxylate]"
4,≤ 250,"COc1ccc([C@H]2CC[C@H](CN(c3cc(-c4cnn(C(C)C)c4)ccn3)C(=O)[C@H]3CC[C@H](OC(=O)N4CC(O)C4)CC3)CC2)cc1C [Compound 7.16, trans-4-((4-(1-Isopropyl-1H-pyrazol-4-yl)pyridin-2-yl)((trans-4-(4-methoxy-3-methylphenyl)cyclohexyl)methyl)carbamoyl)cyclohexyl 3-hydroxyazetidine-1-carboxylate]"
5,≤ 250,"COc1ccc([C@H]2CC[C@H](CN(c3cc(-c4cnn(C5CC5)c4)ccn3)C(=O)[C@H]3CC[C@H](OC(=O)N4CC(O)C4)CC3)CC2)nc1C [Compound 7.24, trans-4-((4-(1-Cyclopropyl-1H-pyrazol-4-yl)pyridin-2-yl)((trans-4-(5-methoxy-6-methylpyridin-2-yl)cyclohexyl)methyl)carbamoyl)cyclohexyl 3-hydroxyazetidine-1-carboxylate]"
6,≤ 250,"COc1ccc([C@H]2CC[C@H](CN(c3cc(-c4cnn(C(C)C)c4)ccn3)C(=O)[C@H]3CC[C@H](OC(=O)N4CC(N(C)C)C4)CC3)CC2)cc1C#N [Compound 7.50, trans-4-(((trans-4-(3-Cyano-4-methoxyphenyl)cyclohexyl)methyl)(4-(1-isopropyl-1H-pyrazol-4-yl)pyridin-2-yl)carbamoyl)cyclohexyl 3-(dimethylamino)azetidine-1-carboxylate]"
7,≤ 250,"COc1ccc([C@H]2CC[C@H](CN(c3cccc(-c4cnn(C5CC5)c4)c3)C(=O)[C@H]3CC[C@H](OC(=O)NC4CN(C(=O)OC(C)(C)C)C4)CC3)CC2)cc1C [Compound 4.17, tert-Butyl 3-((((trans-4-((3-(1-cyclopropyl-1H-pyrazol-4-yl)phenyl)((trans-4-(4-methoxy-3-methylphenyl)cyclohexyl)methyl)carbamoyl)cyclohexyl)oxy)carbonyl)amino)azetidine-1-carboxylate]"
8,≤ 250,"COc1ccc([C@H]2CC[C@H](CN(c3cccc(-c4coc(C5CC5)n4)c3)C(=O)[C@H]3CC[C@H](CC(=O)O)CC3)CC2)nc1C#N [Compound 21.13, 2-(trans-4-(((trans-4-(6-Cyano-5-methoxypyridin-2-yl)cyclohexyl)methyl)(3-(2-cyclopropyloxazol-4-yl)phenyl)carbamoyl)cyclohexyl)acetic acid]"
